Measured values published in patent US20200368272A1, “COMPOSITION FOR AMELIORATING POST-CEREBRAL STROKE SEQUELA” (MiZ Company Limited, priority 2019, published 2020).

Key:
[1] = system: sequelae of cerebellar hemorrhage (loss of motor control, language disorder) in a person
Experimental: A person was hospitalized after developing cerebellar hemorrhage about eight years ago, then was transferred to a rehabilitation hospital after discharge to receive rehabilitation, which they are continuing to this day.
The inhalation of molecular hydrogen was performed daily for the first 2 months, 1 to 1.5 hours in the morning and 1 to 1.5 hours in the evening, then daily for 1 month, 2 to 3 hours in the morning and 2 to 3 hours in the evening, and finally daily for 1 month, 1 hour in the morning and 1 hour in the evening.

[2] = normal temperature and pressure; also printed as 1.6 mg/L; cited from earlier work

[HH] [molecular hydrogen]
articulation (language disorder) ([1]; approximately one month after inhaling): improved | time needed to walk a distance that previously took 20 minutes ([1]; approximately one month after inhaling, about 6 to 7.5 vol % H2): about 10 minutes | speech ([1]; approximately three months after inhalation): their speech became even more audible | motor and daily-life abilities ([1]; approximately two months after inhalation): able to talk while walking, their stride during rehabilitation lengthened | concentration at which hydrogen dissolves in water [2]: about 1.6 ppm
